Results: the supplement of paper PMC10883282
± gives the standard deviation of the averaged measurements.

Tested on: KHOS-240S
Test: relative viability vs DMSO control (72 h) (fraction); higher = more viable cells
Method in brief: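 Relative viability was measured with ATPLite and expressed as percent growth, averaged across up to triplicate wells. Sarcoma cell lines had been seeded in 384-well plates to reach 80–90% confluence, dosed after 24 h, and incubated 72 h at 37 °C, 5% CO2. All data were rescaled on a scale where 1 is full and 0 is none.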

| Structure (SMILES) | relative viability (0.00017 µM) | relative viability (0.00051 µM) | relative viability (0.00152 µM) | relative viability (0.00457 µM) | relative viability (0.01372 µM) | relative viability (0.04115 µM) | relative viability (0.1235 µM) | relative viability (0.3704 µM) | relative viability (1.111 µM) | relative viability (3.333 µM) | relative viability (10 µM) |
| --- | --- | --- | --- | --- | --- | --- | --- | --- | --- | --- | --- |
| Cc1cc(C)c(/C=C2\C(=O)Nc3ccccc32)[nH]1 [Semaxanib] | 1.01 ± 0.02 | 1.01 ± 0.032 | 1.01 ± 0.025 | 1.02 ± 0.034 | 0.99 ± 0.01 | 0.966 ± 0.013 | 0.951 ± 0.022 | 0.959 ± 0.024 | 0.844 ± 0.025 | 0.812 ± 0.023 | 0.803 ± 0.024 |
| O=C(Nc1cnn2ccc(N3CCC[C@@H]3c3cc(F)ccc3F)nc12)N1CC[C@H](O)C1 [Larotrectinib] | 1.1 ± 0.045 | 1.07 ± 0.064 | 1.1 ± 0.091 | 1.07 ± 0.093 | 1.05 ± 0.066 | 1.05 ± 0.02 | 1.09 ± 0.066 | 1.09 ± 0.068 | 1.06 ± 0.06 | 1.07 ± 0.079 | 1.05 ± 0.082 |
| C=CC(=O)N1CCC[C@@H](n2nc(-c3ccc(Oc4ccccc4)cc3)c3c(N)ncnc32)C1 [Ibrutinib] | 1.03 ± 0.038 | 1.08 ± 0.064 | 1.09 ± 0.078 | 1.09 ± 0.079 | 1.05 ± 0.054 | 1.08 ± 0.053 | 1.05 ± 0.1 | 1.05 ± 0.081 | 0.979 ± 0.045 | 0.884 ± 0.035 | 0.587 ± 0.015 |
| CC(C)N1CCN(Cc2cnc(-c3cc(-c4cccc5[nH]ccc45)cc4[nH]ncc34)o2)CC1 [Nemiralisib] | 0.971 ± 0.016 | 0.972 ± 0.027 | 0.98 ± 0.026 | 0.971 ± 0.024 | 0.966 ± 0.017 | 0.939 ± 0.018 | 0.956 ± 0.027 | 0.927 ± 0.035 | 0.93 ± 0.041 | 0.759 ± 0.018 | 0.455 ± 0.026 |
| CN1CCN(c2ccc3nc(-c4c(N)c5c(F)cccc5[nH]c4=O)[nH]c3c2)CC1 [Dovitinib] | 1.07 ± 0.031 | 1.04 ± 0.051 | 1.06 ± 0.046 | 1.02 ± 0.023 | 1.05 ± 0.033 | 1.08 ± 0.019 | 0.979 ± 0.022 | 0.891 ± 0.059 | 0.548 ± 0.014 | 0.289 ± 0.027 | 0.0854 ± 0.0022 |
| COc1c(OCCCN2CCOCC2)ccc2c1N=C(NC(=O)c1cnc(N)nc1)N1CCN=C21 [Copanlisib] | 1.09 ± 0.041 | 1.02 ± 0.048 | 1.06 ± 0.013 | 0.922 ± 0.094 | 0.889 ± 0.098 | 0.833 ± 0.09 | 0.714 ± 0.014 | 0.629 ± 0.022 | 0.409 ± 0.018 | 0.217 ± 0.008 | 0.188 ± 0.003 |
| CNC(=O)c1ccc(-c2cnc3ncc(Cc4ccc5ncccc5c4)n3n2)cc1F [Capmatinib] | 1.07 ± 0.048 | 1.05 ± 0.02 | 1.046 ± 0.0098 | 1.07 ± 0.033 | 1.07 ± 0.018 | 1.06 ± 0.018 | 1.06 ± 0.027 | 1.04 ± 0.018 | 1.03 ± 0.018 | 1.03 ± 0.012 | 0.986 ± 0.03 |
| Cn1cc(-c2cc3c(N4CCN(c5ncc([C@@](C)(N)c6ccc(F)cc6)cn5)CC4)ncnn3c2)cn1 [Avapritinib] | 1.03 ± 0.022 | 1.025 ± 0.0056 | 1 ± 0.039 | 0.992 ± 0.038 | 1.02 ± 0.033 | 1.01 ± 0.014 | 0.965 ± 0.024 | 0.943 ± 0.021 | 0.84 ± 0.026 | 0.783 ± 0.027 | 0.656 ± 0.025 |
| CCCS(=O)(=O)Nc1ccc(F)c(C(=O)c2c[nH]c3ncc(-c4ccc(Cl)cc4)cc23)c1F [Vemurafenib] | 1.09 ± 0.063 | 1.07 ± 0.032 | 1.09 ± 0.049 | 1.08 ± 0.024 | 1.08 ± 0.026 | 1.07 ± 0.034 | 1.07 ± 0.033 | 1.07 ± 0.02 | 1.075 ± 0.0032 | 1.01 ± 0.02 | 0.708 ± 0.046 |
| CC1(C)CNc2cc(NC(=O)c3cccnc3NCc3ccncc3)ccc21 [Motesanib] | 0.972 ± 0.026 | 0.982 ± 0.027 | 0.973 ± 0.03 | 0.992 ± 0.025 | 0.983 ± 0.018 | 0.96 ± 0.023 | 0.97 ± 0.013 | 0.931 ± 0.042 | 0.922 ± 0.075 | 0.874 ± 0.066 | 0.803 ± 0.03 |
| C=CC(=O)Nc1cccc(Oc2nc(Nc3ccc(N4CCN(C)CC4)cc3)nc3ccsc23)c1 [Olmutinib] | 1.01 ± 0.015 | 1.03 ± 0.014 | 1.04 ± 0.018 | 1.02 ± 0.025 | 1.01 ± 0.024 | 1.04 ± 0.011 | 1.03 ± 0.032 | 0.997 ± 0.04 | 0.998 ± 0.035 | 0.865 ± 0.036 | 0.39 ± 0.017 |
| COc1cc2nccc(Oc3ccc(NC(=O)Nc4cc(C)on4)c(Cl)c3)c2cc1OC [Tivozanib] | 1.07 ± 0.061 | 1.07 ± 0.061 | 1.09 ± 0.071 | 1.09 ± 0.059 | 1.08 ± 0.025 | 1.07 ± 0.041 | 1.06 ± 0.018 | 1.045 ± 0.0038 | 1.02 ± 0.042 | 0.908 ± 0.027 | 0.561 ± 0.02 |
| CNC(=O)c1cc(Oc2ccc(NC(=O)Nc3ccc(Cl)c(C(F)(F)F)c3)c(F)c2)ccn1 [Regorafenib] | 1.05 ± 0.055 | 1.09 ± 0.052 | 1.07 ± 0.051 | 1.07 ± 0.053 | 1.1 ± 0.059 | 1.1 ± 0.049 | 1.09 ± 0.04 | 1.04 ± 0.014 | 0.96 ± 0.09 | 0.812 ± 0.045 | 0.5087 ± 0.00089 |
| Cc1ccc(F)c(NC(=O)Nc2ccc(-c3cccc4[nH]nc(N)c34)cc2)c1 [Linifanib] | 1.06 ± 0.02 | 1.08 ± 0.08 | 1.059 ± 0.0094 | 1.07 ± 0.031 | 1.05 ± 0.029 | 1.08 ± 0.041 | 1.03 ± 0.049 | 1.04 ± 0.054 | 1.06 ± 0.043 | 1.04 ± 0.011 | 0.999 ± 0.054 |
